# Tests used:
# Format in all cases: cell-based
# [1] = tested on: sheep intervertebral disc nucleus pulposus cells; assay: Alcian blue assay of proteoglycan synthesis, sheep cells; details: 10 ng/ml
# Protocol: Human intervertebral disc cells from Example 9 were seeded and grown in 24 well plates in TCM in the presence or absence of exogenous growth factors. At various time points, TCM was aspirated out from the wells and the wells washed 3 times with PBS. The cells were then fixed with 4% paraformaldehyde (pH 7.4) for 10 min. The fixed cells were washed 2 times with PBS and then stained overnight with 0.5% Alcian blue in 0.1N hydrochloric acid (pH 1.5). After overnight staining, excess stain was rinsed out with 3 rinses of PBS. The remaining Alcian blue stain (bound to proteoglycans) was dissolved overnight into 6 M guanidine hydrochloride and the absorbance at 630 nm was measured using a spectrophotometer, providing an indication of the induction of matrix production by exogenous growth factors in human nucleus pulposus cells. […]
# Transforming growth factor-β1 (TGF-β1) and a mixture of bone-derived protein growth factors (BP) produced according to U.S. Pat. Nos. 5,290,763, 5,371,191 and 5,563,124, were tested for their effects on stimulation of proteoglycan synthesis in ovine nucleus pulposus cells. […] At these time points, the cells were fixed and the amount of proteoglycan synthesis was measured by the Alcian blue assay as described in Example 10.
# [2] = tested on: sheep intervertebral disc nucleus pulposus cells; assay: ELISA of Type II collagen and chondroitin-6-sulfate production; details: 7 days, 10 ng/ml
# Protocol: To detect specific antigenic epitopes in the synthesized matrix, sheep intervertebral nucleus pulposus cells from Example 9, seeded and grown in monolayer, were fixed in 2% glutaraldehyde for 1 hour at room temperature. The fixed cells were washed 3 times with TBS for 5 min. each. To block non-specific antibody binding, the cells were incubated in a solution of Tris buffered saline (TBS) containing 1 mM ethylene-diamine-tetraacetic acid (EDTA), 0.05% Tween-20™, and 0.25% bovine serum albumin for 1 hour. The blocking step was followed by 3 washes with TBS for 5 min. each. The cells were incubated with the primary antibody at room temperature for 2.5 hours, and the excess primary antibody was removed by 3 washes with TBS for 5 min. each. A second incubation with blocking buffer was performed for 10 min., followed by 3 washes with TBS. […] The bound primary and secondary antibodies were detected by addition of an enzyme-specific substrate which produced a colored reaction. The colorimetric measurement was performed using a spectrophotometer, providing a quantitative measure of the presence of the bound antibodies. […]
# After incubation with growth factors for 7 days, cell cultures were fixed in 2% glutaraldehyde and the quantity of Type II collagen and chondroitin-6-sulfate produced in the cell cultures was detected by ELISA according to the procedure described in Example 11. […]
# [3] = tested on: human intervertebral disc nucleus pulposus cells; assay: Alcian blue assay of proteoglycan synthesis, human cells; details: 10 ng/ml
# Protocol: (§1) Human intervertebral disc cells from Example 9 were seeded and grown in 24 well plates in TCM in the presence or absence of exogenous growth factors. At various time points, TCM was aspirated out from the wells and the wells washed 3 times with PBS. The cells were then fixed with 4% paraformaldehyde (pH 7.4) for 10 min. The fixed cells were washed 2 times with PBS and then stained overnight with 0.5% Alcian blue in 0.1N hydrochloric acid (pH 1.5). After overnight staining, excess stain was rinsed out with 3 rinses of PBS. The remaining Alcian blue stain (bound to proteoglycans) was dissolved overnight into 6 M guanidine hydrochloride and the absorbance at 630 nm was measured using a spectrophotometer, providing an indication of the induction of matrix production by exogenous growth factors in human nucleus pulposus cells.
# TGF-β1 and BP were tested for their effects on stimulation of proteoglycan synthesis in human nucleus cells. Human intervertebral disc nucleus pulposus cells obtained from Disc L5-S1 of a patient were cultured as described in Examples 8 and 9 and seeded into 24-well plates. After the cells adhered to the well surface, multiple dilutions of different growth factors were added. The concentrations of growth factors tested were 10 ng/ml TGF-β1, and 10 and 20 μg/ml of BP. The dilutions were prepared in TCM. The cells were fixed after 5 and 8 days of continuous exposure to growth factors and proteoglycans synthesized were detected by the Alcian blue assay as described in Example 10.
# A second experiment to test the effects of TGF-β1 and BP on proteoglycan synthesis was performed on a different human patient from that described in Example 14. Human intervertebral disc cells obtained from another patient were cultured as described in Examples 8 and 9 and seeded into 24 well plates. Growth factors were added after the cells were allowed to adhere overnight. […] After 6 and 9 days the cells were fixed and the amount of proteoglycans synthesized was measured by the Alcian blue assay as described in Example 10.
# [4] = tested on: baboon intervertebral disc nucleus pulposus cells; assay: Alcian blue assay of proteoglycan synthesis, baboon cells; details: 8 days, 10 ng/ml
# Protocol: as §1
# The foregoing procedure was also applied to sheep and baboon intervertebral nucleus pulposus cells from Example 9 to obtain an indication of the induction of matrix production by exogenous growth factors in sheep and baboon nucleus pulposus cells.
# TGF-β1 and BP were tested for their effects on stimulation of proteoglycan synthesis in baboon nucleus cells. […] The cells were fixed after 4 and 8 days of continuous exposure to growth factors, and proteoglycan synthesis was detected by the Alcian blue assay as described in Example 10.
# [5] = tested on: Sheep nucleus cells (SNCs)
# Protocol: The monomer solution was poured into molds and photo-polymerized using long-wave ultraviolet light at 365 nm wavelength. Polymerized hydrogels were placed into tissue culture inserts which were then placed above seeded SNCs. Cytotoxicity of unpolymerized matrix was also determined, by including inserts containing unpolymerized monomer solution. SNC seeded wells containing empty inserts served as controls. SNCs and inserts were completely immersed in TCM. […] The MTS assay measures viability of cells by a calorimetric method, wherein the MTS tetrazolium compound is bio reduced by cells into a colored formazan product which is soluble in TCM. The conversion is accomplished by dehydrogenase enzymes present in metabolically active cells.
# [6] = tested on: Sheep nucleus chondrocytes; assay: MTT cytotoxicity of the photo-initiating system
# Protocol: Sheep nucleus chondrocytes were seeded in a 12-well plate at 20,000 cells/well and incubated with TCM. After allowing cells to adhere for over 48 hours, spent media was replaced with TCM containing 0 or 1000 ppm Irgacure 2959. SNCs were then exposed to long wave ultraviolet light at 365 nm wavelength for different lengths of time, followed by incubation at 37° C. MTT assay was performed at 1, 5, and 24 hours post UV exposure to assess viability of cells. The principle of the assay is similar to the MTS assay mentioned before, except that a different tetrazolium compound is used in this method.
Compound,increase in proteoglycan synthesis above 0.5% serum control ([1]; 7 day),increase in proteoglycan synthesis above 0.5% serum control ([1]; 10 day) [%],increased production of Type II collagen over controls [2] [%],increased production of chondroitin-6-sulfate over controls [2] [%],"increase in Alcian blue staining over the control ([3]; Example 14 patient, 8 days) [%]","more proteoglycans than control ([3]; Example 15 patient, 6 days) [%]","increased proteoglycan production over controls ([3]; Example 15 patient, 9 days) [%]",increase in proteoglycan synthesis over the control [4] [%],"cytotoxicity (MTS, absorbance at 570 nm) [5]","cytotoxicity (MTT) ([6]; 1000 ppm in TCM, by itself (no free radical production), FIG. 29: 24 hours post-UV)",cell death by free radicals from UV light with Irgacure 2959 (MTT) ([6]; 1000 ppm plus 365 nm UV for different lengths of time)
Transforming growth factor-β1 [TGF-β1],not significant,52,115,800,42,54,74,21,,,
CC(C)(O)C(=O)c1ccc(OCCO)cc1 [Irgacure 2959],,,,,,,,,cytocompatible,not significantly cytotoxic,significant only at 5 and 10 min of UV exposure
C=CN1CCCCCC1=O [vinyl caprolactam],,,,,,,,,cytocompatible,,

# Source: patent publication US20070003525A1, “Hydrogel compositions comprising nucleus pulposus tissue” (priority 2003, published 2007)
